Literature values in US7621907B2, “Implantable drug delivery system” (Alcon, Inc., priority 2002, dated 2009).
Where a name gives a salt, the structure may show the parent alone.

Details: descriptive statement, no test described

water solubility | Compound
relatively high | CC(C)NCC(O)COc1ccc(CCOCC2CC2)cc1 (centres unmarked) [betaxolol HCl]
relatively low | NC(=O)Cc1cccc(C(=O)c2ccccc2)c1N [nepafenac]
